Results taken from patent publication US12297457B2, “Esophageal tissue and/or organoid compositions and methods of making same” (Children's Hospital Medical Center, priority 2017, dated 2025).

Assays:
[1] = test system: Xenopus endoderm explants; test: nkx2-1 in situ hybridization of Xenopus endoderm explants; format: cell-based, Xenopus laevis; conditions: sox2 morpholino knock down; explants analysed at stage NF35
Procedure: Xenopus laevis adults were purchased from the Nasco (Fort Atkinson, Wis.), and housed according to CCHMC IACUC protocols. Ovulation, in vitro fertilization, and de-jellying of embryos were performed as described (Sive et al., 2000). A mixture of previously validated Sox2 morpholinos (MOs; Van Raay et al., 2005) targeting the 5′UTR (Sox2-UTR MO) and the ATG start codon (Sox2-ATG MO) were injected at the 8-cell stage into each vegetal blastomere (2 ng total MO per blastomere, 8 ng total per embryo) to target endoderm. MOs were synthesized and purchased from GeneTools. Equal amount of control MO was used in control injections.
For Xenopus explant studies, stage NF20 foregut endoderm tissue was micro-dissected in 1×MBS (Modified Barth's Saline; Sive et al., 2000)+50 ug/mL gentamycin sulfate (MP Biochemicals), +4% Ficoll-400 (Sigma) and explants were then cultured in 0.5×MBS+0.1% Fatty Acid Free BSA (Fisher)+50 ug/mL gentamycin sulfate with or without the following concentrations of small molecules or recombinant proteins from stages […] (approximately 48 hours): 3.5 μM Bio (Tocris), 50 ng/mL recombinant human BMP4 (R&D systems).
In situ hybridization on mouse sections was performed by generating DIG-labeled probes from linearized mouse cDNA plasmids. […]

foregut spheroids = test: Anterior-posterior patterning of foregut spheroids (qPCR, IF); format: cell-based, human; conditions: TGFβ inhibitor added during foregut induction; SB431542, 10 μM
Procedure: Confluent hPSC cultures were treated with Acutase (STEMCELL Technologies) to resuspend as single cells in mTeSR1 and Y-27632 (10 μM, Tocris) and plated on Matrigel. On the following day, differentiation into definitive endoderm was carried out as previously described (McCracken et al., 2014). Briefly, cells were treated with Activin A (100 ng mL-1, R&D systems, Minneapolis, Minn.) and BMP4 (50 ng mL-1, R&D systems) on the first day in RPMI 1640 media (Life Technologies). Cells in the following two days were treated with only Activin A (100 ng mL-1) in RPMI 1640 with increasing concentrations 0.2% and 2% of HyClone defined fetal bovine serum (dFBS, GE Healthcare Life Sciences).
For anterior foregut monolayer cultures, cells were treated for 3 days in Noggin (200 ng mL-1) in RPMI 1640 with 2% dFBS, with all-trans retinoic acid (2 μM, Sigma, St. Louis, Mo.) the 3rd day.
(§1) Alternately, for the generation of anterior foregut spheroids, from definitive endoderm, cells were treated with FGF4 (500 ng mL-1, R&D systems), Noggin (200 ng mL-1) for 3 days in RPMI 1640 with 2% dFBS. Additional factors were tested during this time (described in results), such as CHIR99021 (“chiron” or “chr”, 2 μM, Tocris), Wnt3a (500 ng mL-1, R&D systems), SB431542 (10 μM, Tocris), DEAB (10 μM, Sigma), and retinoic acid (2 μM).
Tissue cultures were fixed with 4% paraformaldehyde at either room temperature for 15 minutes, 4° C. for 2 hours for cryosectioning, or 4° C. overnight for paraffin embedding/sectioning and mouse embryos. For paraffin embedding and sectioning, following fixation, tissues were dehydrated and embedded into paraffin blocks. Afterwards, paraffin-sectioned slides were deparaffinized and subjected to antigen retrieval in 10 mM sodium citrate for 30 minutes prior to staining. For cryosectioning, tissues were thoroughly washed in PBS, left in 30% sucrose overnight, embedded in OCT compound (VWR), and sectioned at a thickness of 8 μm. Commonly, slides were then permeabilized with 0.5% TritonX-100 in PBS for 10 minutes, blocked in 5% normal donkey serum (Jackson ImmunoResearch) for 1 hour, and incubated in primary antibody overnight at 4° C. On the next day, slides were thoroughly washed in PBS, incubated in secondary antibody (at 1:500) for 1 hour, and then thoroughly washed again. For EdU visualization, Applicant used the Click-iT EdU Alexa Fluor 488 Imaging Kit (Invitrogen) prior to blocking. For wholemount immunofluorescence staining, embryos were placed in 100% methanol immediately after fixation. Embryos were then permeabilized with Dent's Bleach (4:1:1 MeOH:DMSO:30% H2O2) for 2 hours at room temperature, rehydrated with methanol washes, and blocked for several hours at room temperature to overnight at 4° C. Primary antibodies were applied and embryos incubated overnight at 4° C. Then, embryos were thoroughly washed in 0.1% TritonX-100 in PBS before incubating in secondary antibodies overnight at 4° C. Finally, embryos were washed again, dehydrated with methanol washes, and cleared with Murray's Clear (2:1 benzyl benzoate:benzyl alcohol, Sigma) at least 15 minutes prior to imaging. For a list of antibodies and dilutions used, please see Table 2.
Spheroid and organoids were harvested in total, including the embedding matrigel. Collagen plugs from the organotypic raft cultures were first removed from the transwell on day 14, and subsequently harvested in total. Total RNA was isolated using the NucleoSpin RNA kit (Macherey-Nagel) and reverse transcribed to cDNA using the SuperScript VILO cDNA synthesis kit (ThermoFisher Scientific). For qRT-PCR, Applicant used Quantitect SYBR-Green master mix (Qiagen) and ran the reaction on a QuantStudio 6 machine (ThermoFisher Scientific). For a list of primers used, please see Table 1.

AFG spheroids = test: Dorsal-ventral patterning / respiratory induction of anterior foregut spheroids (qPCR, IF); format: cell-based, human; conditions: TGFβ inhibitor added during foregut induction; day 9 spheroids
Procedure: as §1
Anterior foregut spheroids were transferred into 50 μL droplets of Matrigel, and are cultured for 3-58 days in the base (“Gut”) media of Advanced DMEM/F12 (ThermoFisher Scientific) supplemented with B27 supplement (1×, ThermoFisher Scientific), N2 supplement (1×, ThermoFisher Scientific), HEPES (13 mM, ThermoFisher Scientific), L-Glutamine (2 mM ThermoFisher Scientific), penicillin/streptomycin (1×, ThermoFisher Scientific), and EGF (100 ng mL^−1, R&D systems). In addition to this base media, the first three days were supplemented with Noggin (200 ng mL^−1), FGF10 (50 ng mL^−1), and CultureOne supplement (1×, ThermoFisher Scientific). […]
Spheroid and organoids were harvested in total, including the embedding matrigel. […] For qRT-PCR, Applicant used Quantitect SYBR-Green master mix (Qiagen) and ran the reaction on a QuantStudio 6 machine (ThermoFisher Scientific). […]

[2] = test system: anterior foregut (AFG) cultures; test: Doxycycline-induced CDX2 in anterior foregut cultures (IF quantification); format: cell-based, human; conditions: AFG cultures treated for 1 day
Procedure: Human embryonic stem cell (hESC) line H1 (WA01, person) were purchased from WiCell. iPSC line iPS106 was generated in-house and approved by the institutional review board at CCHMC. All hPSCs were maintained on feeder-free cultures: cells were plated on hESC-qualified Matrigel (BD Biosciences, San Jose, Calif.) and maintained at 37° C. with 5% CO2 with daily replacement of mTeSR1 media (STEMCELL Technologies, Vancouver, Canada); cells were passaged routinely every 4 days using Dispase (STEMCELL Technologies). The HA-tagged SOX2, CDX2, or FANCA dox-inducible lines were generated by first cloning the human SOX2 ORF, CDX2 ORF, or FANCA ORF into pINDUCER20 (respectively) (Addgene #44012, Meerbrey et al., 2011). Next, lentivirus was generated with help of the Viral Vector Core Facility at CCHMC. The lentivirus for HA-SOX2 and CDX2 were transduced into hESCs with 2 μL of virus; these lines were maintained on selection with mTeSR1 and G418 (500 μg mL-1, ThermoFisher Scientific). The lentivirus for FANCA were transduced prior to the iPS106 line generation, as FANCA is required for maintenance of hPSC properties. The hESC H1 line (and transduced derivatives) was used in all experiments excluding Fanconi Anemia modeling in HEOs, which used the iPS106 line. […]

[3] = test system: dorsally-patterned AFG spheroids; test: Outgrowth of dorsally-patterned AFG spheroids into esophageal organoids; format: cell-based, human; conditions: added from day 6 to day 13
Procedure: Anterior foregut spheroids were transferred into 50 μL droplets of Matrigel, and are cultured for 3-58 days in the base (“Gut”) media of Advanced DMEM/F12 (ThermoFisher Scientific) supplemented with B27 supplement (1×, ThermoFisher Scientific), N2 supplement (1×, ThermoFisher Scientific), HEPES (13 mM, ThermoFisher Scientific), L-Glutamine (2 mM ThermoFisher Scientific), penicillin/streptomycin (1×, ThermoFisher Scientific), and EGF (100 ng mL^−1, R&D systems). In addition to this base media, the first three days were supplemented with Noggin (200 ng mL^−1), FGF10 (50 ng mL^−1), and CultureOne supplement (1×, ThermoFisher Scientific). FGF10 and CultureOne supplementation is continued until the end of the first week in three-dimensional culture. Media was replaced every 3-4 days. For EdU labeling, media was supplemented with EdU (10 μM Invitrogen) for a defined period of time, and was removed by washing with sterile PBS twice before replacing with media without EdU.

O=C1Nc2cc(Br)ccc2/C1=C1/Nc2ccccc2/C1=N\O [Bio]
nkx2-1 expression [1]: did not activate nkx2-1 expression

NC(=O)c1ccc(-c2nc(-c3ccc4c(c3)OCO4)c(-c3ccccn3)[nH]2)cc1 [TGFβ inhibitor, SB431542, reference compound]
posterior foregut markers (foregut spheroids): increase in posterior foregut markers | upregulation of NKX2-1 on respiratory induction (AFG spheroids): reduces upregulation of NKX2-1

C[C@H]1c2cccc(O)c2C(=O)C2=C(O)[C@]3(O)C(=O)C(C(N)=O)=C(O)[C@@H](N(C)C)[C@@H]3[C@@H](O)[C@@H]21 [doxycycline, Doxycycline]
doxycycline concentration at which CDX2 induction saturates [2]: 100 to 500 ng/mL

B1: FGF10: recombinant human FGF10 (protein, UniProt O15520 38-208, looked up)
Fibroblast growth factor 10: QALGQDMVSPEATNSSSSSFSSPSSAGRHVRSYNHLQGDVRWRKLFSFTKYFLKIEKNGKVSGTKKENCPYSILEITSVEIGVVAVKAINSNYYLAMNKKGKLYGSKEFNNDCKLKERIEENGYNTYASFNWQHNGRQMYVALNGKGAPRRGQKTRRKNTSAHFLPMVVHS
efficiency of spheroid to organoid outgrowth [3]: improved efficiency of spheroid to organoid outgrowth | patterning and differentiation into esophageal organoids ([3]; data not shown): did not affect
